The nature of data set [1]: Phase solubility study: drug solubility in buffer solutions by UV-vis spectrophotometry. The class given is physicochemical. The settings on record: buffer solution without cyclodextrin, thermodynamic from solid, no cyclodextrin, read-out: solubility (C) in water (buffer solution), CD. The protocol:
The calibration curves are included in these figures. The absorption spectra were recorded in the range of 190–350 nm and for the calculation of […] the change of absorption was measured at 340 nm (pH 7.0), 195 nm (pH 2.0) for MEF; 245 nm (pH 7.0), and 250 nm (pH 2.0) for NIF and 255 nm (pH 7.0), and 225 nm (pH 2.0) for FLU, respectively.
The UV-Vis spectrophotometer (Perkin–Elmer Life and Analytical Sciences, Shelton, USA) was used to determine the 2HP-β-CD influence on drug solubility. Maximum drug concentration was measured at different cyclodextrins concentrations, temperatures and pHs. Samples contained buffer solution with pH 7 or 2, 2HP-β-CD in different concentrations, i.e., 0, 1, 2, 4, 7 or 10 mmol·dm^−3 and drug in excess. Samples were thermostated and mixed for 20 hours and then left for 4 hours for separation. The uncertainties of the temperature measurements were judged to be 0.1 K. Absorbance of each sample was measured with the UV-vis spectrophotometer.
The stability constants were determined by the measurements of the concentration of the drug in the sample as a function of the cyclodextrin concentration. Such a method is usually called “Phase solubility study” [31]. In this method complex stability constants are calculated from the obtained solubility data using a spectophotometric method. As a reference sample, the buffer + 2HP-β-CD solutions were used. Two buffers were prepared (mol concentration) i.e., potassium dihydrogen phosphate (0.008), disodium hydrogen phosphate (0.008; buffer, pH = 7.0), potassium dihydrogen phosphate (0.05), hydrochloric acid (0.05, buffer, pH = 2.0). Samples were scanned with a scan step of 1 nm from 650 to 190 nm. Measurements at pH = 10 were not performed in all systems, because of the necessity of using too high drug concentrations and because of problems with separation of two phases.

The nature of data set [2]: Phase solubility study: effect of 2HP-β-CD on drug solubility and cyclodextrin-drug complex stability/dissociation constants. The settings on record: for cyclodextrin-drug complex stability constant Ks: 1:1 complex, Higuchi-Connors; for Kd: Kd = 1/Ks, value is Kd multiplied by 10^3, read-out: dissociation constant Kd·10^3; for solubility enhance ratio (R): drug concentration at highest 2HP-β-CD concentration relative to no cyclodextrin; for stability constant log Ks: pH = 7, T = 298.15 K, our value, phase solubility. Type of data set: physicochemical. The protocol: Solubility enhance ratio, R, was calculated as a drug concentration at the highest cyclodextrin concentration with relation to drug concentration in the absence of cyclodextrin. […] The opposite effect is observed for NIF. […] In general, when the solubility of the drug is very low, the solubility enhance ratio, R is high. Substitution of hydroxyl groups surrounding the 2HP-β-CD rim by the hydroxypropyl group promotes the complex formation process for drug derivatives of anthranilic acid with polar carboxylic substituent. […] Measurements of cyclodextrin-drug complex stability constants Ks and dissociation constants Kd are very important since these values indicate changes in physicochemical properties of a compound upon inclusion. Linear dependence of drug concentration to cyclodextrin concentration, with slope ratio below one usually assumes 1:1 ratio of complex. The stability constant, Ks, for complexes with 1:1 ratio is represented by: (1) Ks=[CD]/[D]⋅[C] Where: [D] is pure drug concentration, [C] is pure cyclodextrin concentration, and [CD] is concentration of drug-cyclodextrin complexes in solution. Complex dissociation constant, Kd, is represented by: […] For such systems, stability constant can be obtained by the following equation, investigated previously by Higuchi and Connors, 1965 [25]: (3) Ks=K1:1=slope/c0⋅(1−slope) […] Maximum drug concentration was measured at different cyclodextrins concentrations, temperatures and pHs. […] Samples were thermostated and mixed for 20 hours and then left for 4 hours for separation. The uncertainties of the temperature measurements were judged to be 0.1 K. Absorbance of each sample was measured with the UV-vis spectrophotometer. The stability constants were determined by the measurements of the concentration of the drug in the sample as a function of the cyclodextrin concentration. Such a method is usually called “Phase solubility study” [31]. In this method complex stability constants are calculated from the obtained solubility data using a spectophotometric method. As a reference sample, the buffer + 2HP-β-CD solutions were used. Two buffers were prepared (mol concentration) i.e., potassium dihydrogen phosphate (0.008), disodium hydrogen phosphate (0.008; buffer, pH = 7.0), potassium dihydrogen phosphate (0.05), hydrochloric acid (0.05, buffer, pH = 2.0). Samples were scanned with a scan step of 1 nm from 650 to 190 nm. Measurements at pH = 10 were not performed in all systems, because of the necessity of using too high drug concentrations and because of problems with separation of two phases.

Data set [3] can be described thus: Thermodynamic parameters of complexation from temperature dependence of stability constant (van't Hoff). Type of data set: physicochemical. The settings on record: T = 298.15 K, pH = 7 (buffer solution). The text has this: Thermodynamic parameters of reactions i.e. the free energy change (ΔG), the enthalpy change (ΔH) and the entropy change (ΔS), can be obtained from the temperature dependence of stability constant.

For data set [4] the following is noted: cited from earlier work.
For data set [5] the following is noted: T = 298.15 K, cited from earlier work.
On the set-up of data set [6]: method as in earlier work. The settings on record: aqueous ethanol; cited from earlier work.
Where [7] appears, read: pH 2, aqueous buffer, pH 2, T = 298.15 K.
[8] abbreviates: pH 2, aqueous buffer, pH 2, T = 310.15 K.
[9] abbreviates: pH 7, aqueous buffer, pH 7, T = 298.15 K.
[10] abbreviates: pH 7, aqueous buffer, pH 7, T = 310.15 K.
Setting [11] is: previous work, densimetry and 1H NMR measurements.

Data on four compounds can be found in article PMC3127123, “Effect of 2-Hydroxypropyl-β-cyclodextrin on Solubility of Sparingly Soluble Drug Derivatives of Anthranilic Acid” (International Journal of Molecular Sciences, 2011).

As a reminder, the solubility is how much of the substance goes into solution per volume. Usually Kd stands for a measure of binding affinity in units of concentration.

Converted amounts (≈) assume the structure as drawn. Like-named read-outs stand apart in the source and are kept apart here.

`O=C(O)c1ccccc1Nc1cccc(C(F)(F)F)c1` [Flufenamic acid]: the solubility at 20 h in data set [1] (setting [7]) turned out to be 6 µM (≈ 1.69 µg/mL); in data set [1] (setting [8]) it was 15 µM (≈ 4.22 µg/mL); in data set [1] (setting [9]), 228 µM (≈ 64.1 µg/mL); in data set [1] (setting [10]), 298 µM (≈ 83.8 µg/mL). Moreover, the “cyclodextrin-drug complex stability constant Ks” value in data set [2] (pH 2, T = 298.15 K) is 3055 M⁻¹; in data set [2] (pH 2, T = 310.15 K), 1850 M⁻¹; in data set [2] (pH 7, T = 298.15 K), 202 M⁻¹; in data set [2] (pH 7, T = 310.15 K), 218 M⁻¹. Also, the Kd in data set [2] (pH 2, T = 298.15 K) was 0.33 mM; in data set [2] (pH 2, T = 310.15 K), 0.54 mM; in data set [2] (pH 7, T = 298.15 K) it was 4.95 mM; in data set [2] (pH 7, T = 310.15 K), 4.59 mM. For the same compound, the “solubility enhance ratio (R)” value in data set [2] (pH 2, T = 298.15 K) is listed as 31.0; in data set [2] (pH 2, T = 310.15 K) it was 19.0; in data set [2] (pH 7, T = 298.15 K) it was 2.9; in data set [2] (pH 7, T = 310.15 K), 3.0. Moreover, the “stability constant log Ks” value in data set [2] is given as 2.30; in data set [4] (phase-solubility diagrams, pH = 6.75, T = 298.15 K), 2.36. For the same compound, in data set [3], the “entropy change (ΔS) of complexation” value amounted to 50.2 J·mol^−1·K^−1. For the same compound, the solubility in water in data set [5] is reported as 2.38 × 10^−2 mmol·dm^−3.

Consider `Cc1cccc(Nc2ccccc2C(=O)O)c1C` [Mefenamic acid], for which the solubility at 20 h in data set [1] (setting [7]) was 1 µM (≈ 0.241 µg/mL); in data set [1] (setting [8]) it was 1 µM (≈ 0.241 µg/mL); in data set [1] (setting [9]), 155 µM (≈ 37.4 µg/mL); in data set [1] (setting [10]), 220 µM (≈ 53.1 µg/mL). For the same compound, the “cyclodextrin-drug complex stability constant Ks” value was 539 M⁻¹ in data set [2] (pH 2, T = 298.15 K); 1627 M⁻¹ in data set [2] (pH 2, T = 310.15 K); 383 M⁻¹ in data set [2] (pH 7, T = 298.15 K); 562 M⁻¹ in data set [2] (pH 7, T = 310.15 K). For the same compound, the Kd in data set [2] (pH 2, T = 298.15 K) came to 1.86 mM; in data set [2] (pH 2, T = 310.15 K), 0.62 mM; in data set [2] (pH 7, T = 298.15 K), 2.61 mM; in data set [2] (pH 7, T = 310.15 K), 1.78 mM. Moreover, the “solubility enhance ratio (R)” value in data set [2] (pH 2, T = 298.15 K) was determined as 6.4; in data set [2] (pH 2, T = 310.15 K), 17.3; in data set [2] (pH 7, T = 298.15 K) it was 4.6; in data set [2] (pH 7, T = 310.15 K), 6.0. Moreover, the “entropy change (ΔS) of complexation” value in data set [3] is reported as −33.0 J·mol^−1·K^−1. The “free energy change (ΔG) of complexation” value in data set [3] was -3.51 kcal/mol. The solubility in water in data set [5] (pH between 3 and 6) is listed as 0.87 × 10^−4 mmol·dm^−3.

For `O=C(O)c1cccnc1Nc1cccc(C(F)(F)F)c1` [Niflumic acid], the solubility at 20 h came out at 698 µM (≈ 197 µg/mL) in data set [1] (setting [7]), 925 µM (≈ 261 µg/mL) in data set [1] (setting [8]), 5750 µM (≈ 1620 µg/mL) in data set [1] (setting [9]) and 8170 µM (≈ 2310 µg/mL) in data set [1] (setting [10]). The “cyclodextrin-drug complex stability constant Ks” value worked out at 26 M⁻¹ in data set [2] (pH 2, T = 298.15 K); 33 M⁻¹ in data set [2] (pH 2, T = 310.15 K); 96 M⁻¹ in data set [2] (pH 7, T = 298.15 K); 82 M⁻¹ in data set [2] (pH 7, T = 310.15 K). The Kd in data set [2] (pH 2, T = 298.15 K) came to 38.9 mM; in data set [2] (pH 2, T = 310.15 K), 29.2 mM; in data set [2] (pH 7, T = 298.15 K), 10.4 mM; in data set [2] (pH 7, T = 310.15 K), 12.2 mM. The “solubility enhance ratio (R)” value in data set [2] (pH 2, T = 298.15 K) was determined as 1.3; in data set [2] (pH 2, T = 310.15 K), 1.3; in data set [2] (pH 7, T = 298.15 K) it was 1.6; in data set [2] (pH 7, T = 310.15 K), 1.5. The “stability constant log Ks” value is recorded as 1.98 in data set [2]; 2.3 in data set [4] (1H NMR, pH = 7.4, T = 298.15 K); 3.09 in data set [4] (UV-vis, pH = 7.4, T = 298.15 K); 2.2 in data set [4] (calorimetric measurements, pH = 7.4, T = 298.15 K); 2.8 in data set [4] (densimetry, pH = 7.4, T = 298.15 K); 2.72 in data set [4] (pH = 7, T = 298.15 K, cyclodextrin not named at the place). In data set [4] (pH = 12, T = 298.15 K, cyclodextrin not named at the place), the “stability constant log Ks” value is 2.53. Also, the “enthalpy change (ΔH) of complexation” value in data set [3] is -2.39 kcal/mol. The “entropy change (ΔS) of complexation” value in data set [3] was found to be 4.3 J·mol^−1·K^−1. Moreover, the “free energy change (ΔG) of complexation” value in data set [3] was -2.7 kcal/mol; in data set [4] (T = 298.15 K, pH = 7.4) it was -2.94 kcal/mol. The enthalpy of complexation in data set [4] (setting [11]) was -4.8 kcal/mol. Moreover, the entropy of complexation result in data set [4] (setting [11]) was “negative”.

As for `Oc1cc(Cl)ccc1Oc1ccc(Cl)cc1Cl` [triclosan], the “solubility increase on complexation with 2HP-β-CD” value in data set [6] is reported as 70 fold.
